Data on 41 compounds can be found in ChEMBL document CHEMBL5360533, “Targeting ecto-5'-nucleotidase: A comprehensive review into small molecule inhibitors and expression modulators” (Eur J Med Chem, 2023).

SMILES strings stand for the structures.

Data set [1] is described as follows: Cytotoxicity against hamster BHK-21 cells assessed as inhibition of cell viability at 100 uM measured after 24 hrs by MTT assay. It counts as toxicity, cell-based, Mesocricetus auratus. The settings on record: read-out: INH.
Data set [2] concerns the target T1, 5'-nucleotidase (Homo sapiens, UniProt P21589). Put plainly: Inhibition of human N-terminal Ecto-5'-nucleotidase.
In data set [3] the test system is HeLa. The data set is described as follows: Cytotoxicity against human HeLa cells assessed as inhibition of cell viability at 100 uM measured after 24 hrs by MTT assay. The class given is functional.
In data set [4] the target is T2, 5'-nucleotidase (Mus musculus, UniProt Q61503).
T2 sequence (Q61503 whole entry): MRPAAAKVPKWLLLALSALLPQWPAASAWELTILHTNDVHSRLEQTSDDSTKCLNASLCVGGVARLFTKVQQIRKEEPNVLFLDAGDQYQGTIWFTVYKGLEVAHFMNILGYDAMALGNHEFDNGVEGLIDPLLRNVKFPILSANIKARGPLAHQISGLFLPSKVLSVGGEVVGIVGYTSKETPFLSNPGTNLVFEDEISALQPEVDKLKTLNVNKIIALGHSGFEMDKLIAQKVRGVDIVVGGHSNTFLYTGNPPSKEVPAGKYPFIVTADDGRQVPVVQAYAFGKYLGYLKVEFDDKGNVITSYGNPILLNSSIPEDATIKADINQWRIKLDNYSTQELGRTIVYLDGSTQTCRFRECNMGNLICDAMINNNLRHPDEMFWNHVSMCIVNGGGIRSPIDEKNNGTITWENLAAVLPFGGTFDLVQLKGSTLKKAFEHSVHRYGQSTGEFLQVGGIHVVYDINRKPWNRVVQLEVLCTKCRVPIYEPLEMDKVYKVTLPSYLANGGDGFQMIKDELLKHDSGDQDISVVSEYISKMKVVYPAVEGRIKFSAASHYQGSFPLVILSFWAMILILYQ
The data set is described as follows: Inhibition of mouse Ecto-5'-nucleotidase.

The target in data set [5] is T1, 5'-nucleotidase. Put plainly: Inhibition of human recombinant CD73 in mouse 4T1 cells at 12.5 ug/ml incubated for 24 hrs by Western blot analysis relative to control. It counts as cell-based. The settings on record: dose 12.5 µg/ml.
The target in data set [6] is T1, 5'-nucleotidase. Put plainly: Inhibition of human recombinant CD73 in MDA-MB-231 cells at 12.5 ug/ml incubated for 24 hrs by Western blot analysis relative to control. It counts as cell-based. Particulars: dose 12.5 µg/ml.
Data set [7] concerns the target T1, 5'-nucleotidase. The data set is described as follows: Inhibition of recombinant CD73 (unknown origin).
In data set [8] the test system is HeLa. The data set is described as follows: Cytotoxicity against human HeLa cells. The class given is functional, cell-based.
Data set [9] deals with T3, 5'-nucleotidase (Rattus norvegicus, UniProt P21588).
T3 sequence (P21588 whole entry): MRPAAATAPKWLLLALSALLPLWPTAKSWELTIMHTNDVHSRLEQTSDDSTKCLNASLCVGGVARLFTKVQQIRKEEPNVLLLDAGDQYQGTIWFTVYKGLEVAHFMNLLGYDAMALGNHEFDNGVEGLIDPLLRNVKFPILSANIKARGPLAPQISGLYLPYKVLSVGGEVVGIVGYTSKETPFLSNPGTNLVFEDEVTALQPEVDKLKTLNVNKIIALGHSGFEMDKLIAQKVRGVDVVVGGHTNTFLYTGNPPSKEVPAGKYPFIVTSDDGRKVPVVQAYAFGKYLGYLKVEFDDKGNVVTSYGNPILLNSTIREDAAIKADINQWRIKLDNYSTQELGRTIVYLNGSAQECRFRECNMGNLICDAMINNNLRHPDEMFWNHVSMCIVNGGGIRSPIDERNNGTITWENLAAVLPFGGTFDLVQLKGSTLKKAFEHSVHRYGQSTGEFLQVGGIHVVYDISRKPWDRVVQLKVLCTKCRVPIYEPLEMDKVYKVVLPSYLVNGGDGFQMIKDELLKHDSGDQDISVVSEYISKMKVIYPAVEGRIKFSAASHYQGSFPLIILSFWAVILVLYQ
The data set is described as follows: Inhibition of rat Ecto-5'-nucleotidase.

The next data set has as its system Trichomonas vaginalis. The data set is described as follows: Antiprotozoal activity against Trichomonas vaginalis ATCC 30236 assessed as parasitic growth inhibition measured after 24 hrs by cytometry analysis. Particulars: ATCC 30236, 24 h. The class given is functional, organism-based.
For data set [10], the target named is T1, 5'-nucleotidase. The data set is described as follows: Inhibition of human recombinant Ecto-5'-nucleotidase.
In data set [11] the target is T1, 5'-nucleotidase. The data set is described as follows: Inhibition of human recombinant CD73.
Data set [12] addresses T1, 5'-nucleotidase. Put plainly: Inhibition of N-terminal human Ecto-5'-nucleotidase at 250 uM relative to control.
For data set [13], the target named is T1, 5'-nucleotidase. Put plainly: Inhibition of human CD73 expressed in A-375 cells. The class given is cell-based.
Data set [14] concerns the target T1, 5'-nucleotidase. The data set is described as follows: Inhibition of human CD73.
Data set [15] deals with T4, Alkaline phosphatase, tissue-nonspecific isozyme (Homo sapiens, UniProt P05186).
T4 sequence (P05186 whole entry): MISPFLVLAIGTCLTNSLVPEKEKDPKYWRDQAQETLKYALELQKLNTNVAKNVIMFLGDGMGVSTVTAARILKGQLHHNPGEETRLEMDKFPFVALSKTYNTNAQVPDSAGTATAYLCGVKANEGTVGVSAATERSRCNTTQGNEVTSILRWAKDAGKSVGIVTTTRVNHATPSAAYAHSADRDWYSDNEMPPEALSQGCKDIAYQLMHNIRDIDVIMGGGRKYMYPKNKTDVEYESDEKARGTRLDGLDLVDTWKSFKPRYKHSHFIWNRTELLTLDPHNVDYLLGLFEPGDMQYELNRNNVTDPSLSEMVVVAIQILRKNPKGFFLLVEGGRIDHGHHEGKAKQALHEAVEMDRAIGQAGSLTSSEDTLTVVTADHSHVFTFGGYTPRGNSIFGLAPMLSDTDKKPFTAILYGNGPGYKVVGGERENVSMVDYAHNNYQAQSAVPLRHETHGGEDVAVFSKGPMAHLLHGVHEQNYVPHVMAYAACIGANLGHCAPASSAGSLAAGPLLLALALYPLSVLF
Put plainly: Inhibition of human TNAP.

Data set [16] has as its target T1, 5'-nucleotidase. Put plainly: Inhibition of human Ecto-5'-nucleotidase in rat C6 cells at 100 uM relative to control. The class given is cell-based.
In data set [17] the target is T1, 5'-nucleotidase. Put plainly: Inhibition of human Ecto-5'-nucleotidase in rat C6 cells at 200 uM relative to control. The class given is cell-based.
Data set [18] has as its target T1, 5'-nucleotidase. The data set is described as follows: Binding affinity to human recombinant Ecto-5'-nucleotidase assessed as inhibition constant.

T1 sequence (P21589 whole entry): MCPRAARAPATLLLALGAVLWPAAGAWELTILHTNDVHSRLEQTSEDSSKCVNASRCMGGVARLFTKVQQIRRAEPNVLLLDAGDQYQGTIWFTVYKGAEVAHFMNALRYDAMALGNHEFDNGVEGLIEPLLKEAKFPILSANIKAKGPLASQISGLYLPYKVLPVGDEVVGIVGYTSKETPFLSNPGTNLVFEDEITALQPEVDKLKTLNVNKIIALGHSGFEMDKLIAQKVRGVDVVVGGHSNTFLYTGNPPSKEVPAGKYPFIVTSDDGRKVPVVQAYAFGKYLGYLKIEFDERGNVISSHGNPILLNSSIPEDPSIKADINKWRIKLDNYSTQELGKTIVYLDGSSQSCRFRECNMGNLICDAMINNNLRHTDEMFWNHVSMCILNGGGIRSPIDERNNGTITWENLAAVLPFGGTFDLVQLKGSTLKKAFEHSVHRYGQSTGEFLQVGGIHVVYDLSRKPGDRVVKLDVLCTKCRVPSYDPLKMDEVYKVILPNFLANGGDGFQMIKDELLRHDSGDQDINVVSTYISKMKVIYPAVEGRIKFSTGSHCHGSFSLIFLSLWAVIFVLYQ

In the case of `COc1cccc(COc2ccc(/C=N/N3C(=O)CNC3=S)cc2)c1`, in data set [1], the cytotoxicity at 24 h, 100 µM worked out at 4.31%. The compound further returned an IC50 on 5'-nucleotidase [2] of 280 nM. For the same compound, in the data set on HeLa [3], the inhibition at 100 µM was 4.31%. For the compound `C=Cn1cc[n+](Cc2ccc(O)c(C=O)c2)c1`, the IC50 on 5'-nucleotidase [4] is 1930 nM; against 5'-nucleotidase [2], 1140 nM. On to `C=C[C@]1(C)C[C@@H](OC(=O)CSCCN(CC)CC)[C@]2(C)[C@H](C)CC[C@]3(CCC(=O)[C@H]32)[C@@H](C)[C@@H]1O`, for which the results for the inhibition at 5'-nucleotidase [5] and on 5'-nucleotidase [6] were 31.4% and 53.9%, respectively. For the compound `COc1ccc(CN(C)C(=O)Nc2sc3c(c2C(=O)OC(C)(C)C)CCN(Cc2ccccc2)C3)cc1OC`, at 5'-nucleotidase [2], the IC50 was found to be 45800 nM.

On to `O=P(O)(O)CP(=O)(O)C[C@@H](O)[C@H]1O[C@@H](n2cc(-c3cc(C(F)(F)F)cc(C(F)(F)F)c3)nn2)[C@H](O)[C@@H]1O`, for which, at 5'-nucleotidase [7], the IC50 is 4800 nM. Take `Cc1ccc(S(=O)(=O)N/N=C/c2coc3ccc(Br)cc3c2=O)cc1`: in the data set with HeLa [8], the IC50 was determined as 30200 nM. Regarding `Cc1nn(-c2ccccc2)c2nc(-c3ccccc3O)ccc12`, the values for the IC50 against 5'-nucleotidase [9] and against 5'-nucleotidase [2] were 640 nM and 25800 nM, respectively. As to `CCCC(=O)c1c(O)c2c(c(CC3=C(O)C(C)(CC=C(C)C)C(=O)C(C(=O)C(C)C)=C3O)c1O)OC(C)(C)C=C2` (stereo not given), in the data set on Trichomonas vaginalis, the concentration for half-maximal inhibition (IC50) is 38000 nM.

For `C/C(=N\NS(=O)(=O)c1ccccc1)c1cc2ccccc2oc1=O`, on 5'-nucleotidase [10], the IC50 was found to be 290 nM. Regarding `O=c1c(O)c(-c2ccc(O)c(O)c2)oc2cc(O)cc(O)c12` [QUERCETIN], on 5'-nucleotidase [2], the IC50 was 45300 nM.

With `Nc1ncnc2c1ncn2[C@@H]1O[C@H](COC(C(=O)O)P(=O)(O)O)[C@@H](O)[C@H]1O` (stereo not given in full), at 5'-nucleotidase [11], the IC50 is 19000 nM. With `COc1c2c(cc3c1C(=O)O[C@H]1[C@@H]3[C@H]3C(=C[C@@H]1O)CCN3C)OCO2`, the inhibition against 5'-nucleotidase [12] was found to be 59%.

For `O=P(O)(O)COC[C@H]1O[C@@H](n2ncc3c(N4CC5(CCc6ccccc65)C4)nc(Cl)nc32)[C@H](O)[C@@H]1O`, the IC50 was found to be 0.051 nM against 5'-nucleotidase [13] and 0.05 nM against 5'-nucleotidase [14]. On 5'-nucleotidase [2], `O=C(Nc1ccncc1)c1ccc(Cl)cc1` yielded an IC50 of 290 nM. On to `CC1=CC(=O)C2(C=C(c3cc4oc(=O)c5cc(O)c(O)cc5c4c(=O)o3)c3cc(O)c(O)cc32)O1` (stereo not given), for which the IC50 on 5'-nucleotidase [11] is 6720 nM. For the compound `FC(F)(F)c1cc(Cl)c2cc(Br)ccc2n1`, on 5'-nucleotidase [2], the concentration for half-maximal inhibition (IC50) was found to be 1720 nM. The compound `O=C(N/N=C/c1cccnc1)c1ccccc1` yielded an IC50 against 5'-nucleotidase [4] of 210 nM.

`O=C1c2cc3c(cc2[C@@H]2[C@H](O)[C@@H](O)C=C4CCN1[C@H]42)OCO3` had an inhibition on 5'-nucleotidase [12] of 88%. `COc1ccc(/C=N/NC(=O)c2ccccc2)cc1` returned an IC50 at 5'-nucleotidase [4] of 13800 nM. The same measure, in the same setting: to `COc1cc(/C=N/NC(=O)c2ccccc2)ccc1O` belongs 680 nM. Take `CC(=O)c1cc2ccccc2oc1=O` [3-ACETYLCOUMARIN]: the IC50 at 5'-nucleotidase [10] was determined as 4660 nM. Same read-out and setting: the result for `O=C(CSc1nnc(-c2c[nH]c3ccccc23)n1Cc1ccccc1)NO` reads 6200 nM. As for `O=C1CNC(=S)N1/N=C/c1ccc(Br)s1`, the cytotoxicity at 24 h, 100 µM in [1] amounted to 4.31%. The inhibition at 100 µM in the data set on HeLa [3] was 4.31%. Consider `O=c1oc(/C=C/c2ccc(O)c(O)c2)cc2oc3cc(O)c(O)cc3c12` [PHELLIBAUMIN A], for which the IC50 on 5'-nucleotidase [11] came out at 17100 nM. With `COc1cc(/C=N/N2C(=O)CNC2=S)cc(OC)c1OC`, the cytotoxicity at 24 h, 100 µM in data set [1] stood at 4.31%. In addition, the inhibition at 100 µM in the data set with HeLa [3] came out at 4.31%.

`C/C(=N\NC(=O)c1ccncc1)N1N=C(c2ccc(F)cc2)CC1c1ccccc1` (stereo not given) yielded an IC50 against 5'-nucleotidase [4] of 190 nM. Regarding `CC(=O)c1sc(N/N=C/c2ccc[nH]2)nc1C`, the IC50 against 5'-nucleotidase [2] was 320 nM.

With `O=S1(=O)NC(Nc2cccc3[nH]ncc23)=Nc2c1cc(Cl)c(F)c2O`, on 5'-nucleotidase [11], the IC50 is 15 nM. For `O=C(N/N=C/c1ccc(Br)cc1)c1ccccc1`, on 5'-nucleotidase [4], the IC50 was found to be 230 nM. Consider `O=P(O)(O)CP(=O)(O)C[C@@H](O)[C@H]1O[C@@H](n2cc(-c3ccc4ccccc4c3)nn2)[C@H](O)[C@@H]1O`, for which the IC50 on 5'-nucleotidase [7] was found to be 860 nM.

In the case of `Fc1cccc(-c2ccc3nc(C(F)(F)F)cc(Cl)c3c2)c1`, the IC50 at 5'-nucleotidase [2] amounted to 1780 nM. Same read-out and setting: to `CC(=O)c1sc(N/N=C/c2ccc(N(C)C)cc2)nc1C` belongs 320 nM. Turning to `O=c1oc2ccccc2cc1-c1csc(/N=C/c2cccc([N+](=O)[O-])c2)n1`, half-maximal inhibition in data set [15] (IC50) was put at 250 nM. The compound `COc1ccc(-c2ccc3nc(C(F)(F)F)cc(-c4ccc(OC)cc4)c3c2)cc1` showed an IC50 at 5'-nucleotidase [2] of 1130 nM. `Fc1cccc(-c2ccc3nc(C(F)(F)F)cc(-c4cccc(F)c4)c3c2)c1` yielded an IC50 at 5'-nucleotidase [2] of 1190 nM. Regarding `CCOC(=O)C1=C(C)NC(=S)NC1c1ccc(N(C)C)cc1` (stereo not given), the inhibition at 5'-nucleotidase [16] turned out to be 36%; against 5'-nucleotidase [17], 48%. For `Cc1ccc(C(=O)N2CCc3cc(-c4nc(NC(=O)CN5CCc6ccccc6C5)sc4C)ccc32)cc1`, the inhibition constant Ki on 5'-nucleotidase [18] came to 530 nM.

In the case of `Cc1cc2c(cc1O)c(=O)oc1cc(/C=C/c3ccc(O)c(O)c3)oc(=O)c12`, the IC50 on 5'-nucleotidase [11] stood at 35100 nM. At 5'-nucleotidase [2], `CC(=O)c1sc(N/N=C/c2cc3ccccc3[nH]2)nc1C` had an IC50 of 320 nM. The same measure, in the same setting: to `Cc1ccc(-n2cc(C#N)c3cc4c(=O)oc5ccc(C)cc5c4nc32)cc1` belongs 160 nM.

In the data set on HeLa [8], `CCc1ccc2occ(/C=N/NS(=O)(=O)c3ccc(C)cc3)c(=O)c2c1` returned an IC50 of 86000 nM.
